Target: T1, Streptokinase A (Streptococcus pyogenes serotype M1, UniProt P10520)
T1 sequence (P10520 whole entry): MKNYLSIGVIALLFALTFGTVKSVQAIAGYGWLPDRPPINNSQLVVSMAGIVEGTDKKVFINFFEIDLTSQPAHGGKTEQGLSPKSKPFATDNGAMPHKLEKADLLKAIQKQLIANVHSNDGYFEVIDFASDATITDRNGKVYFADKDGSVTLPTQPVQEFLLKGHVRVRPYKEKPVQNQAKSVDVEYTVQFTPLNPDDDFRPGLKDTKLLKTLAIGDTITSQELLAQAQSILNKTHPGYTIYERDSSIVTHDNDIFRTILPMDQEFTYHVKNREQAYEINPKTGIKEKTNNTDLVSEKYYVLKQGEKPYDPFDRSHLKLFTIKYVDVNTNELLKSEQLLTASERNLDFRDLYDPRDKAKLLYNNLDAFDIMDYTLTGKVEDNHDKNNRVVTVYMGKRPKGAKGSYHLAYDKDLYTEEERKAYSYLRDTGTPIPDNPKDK
Assay: viability-normalized secreted streptokinase activity reduction – plasminogen activation absorbance, OD405, dose response (AID 1914); in the data actives have a measured EC50 and inactives only a lower limit;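 also: secreted streptokinase activity via plasminogen activation per viability signal from cell pellet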
Format: functional, Streptococcus pyogenes M1 GAS

Oc1c(Cl)cc(Cl)c(Cl)c1Cc1c(O)c(Cl)cc(Cl)c1Cl [HEXACHLOROPHENE]
EC50: > 150 µM (not active)

Reference: ChEMBL document CHEMBL1201862, “PubChem BioAssay data set” (2004)
